Key:
peroxidase [1] = assay: Peroxidase bleach enhancement: bleaching of Reactive Black 5; format: biochemical, Hormographiella species; conditions: pH 9, 25° C.; for OD reading at 590 nm (Reactive Black 5): tyrosine 200 μM or peptide 100 μM
Procedure: (§1) Dye bleach experiments were performed using a partially purified peroxidase derived from an Hormographiella species. The enzyme was purified by ultrafiltration from the fermentation broth, followed by ion-exchange chromatography using Q-Sepharose (Pharmacia) at pH 7. Enzyme activity is expressed as ABTS (2,2'-azino-bis(3-ethylbenzothiazoline-6-sulphonic acid) units. One ABTS unit represents the amount of enzyme which oxidizes ABTS, resulting in an increase of 1 optical density at 418 nm. Conditions for the activity assay were 2 mM ABTS, 1 mM H2 O2, 20 mM Tris, pH 9.
(§2) Bleaching experiments were conducted at 25° C. in 20 mM Phosphate buffer, set at pH 9. Added peroxidase activity was 60 ABTS units per millilitre. The peptide GGSCGYHYQHCGQG (one letter amino acid code) was added as a peroxidase enhancer at a concentration of 100 μM. The Reactive Black 5 concentration was 30 μM, and the H2 O2 concentration was 250 μM.
(§3) Bleaching of Reactive Black 5 was monitored by the decrease in optical density at 590 nm. The enhancing activity of the peptide was compared to that of the free amino acid tyrosine. As the peptide contains 2 tyrosine residues, 200 μM of the amino acid was added, as a comparison to 100 μM of peptide.

peroxidase [2] = assay: Peroxidase bleach enhancement: bleaching of red beet solution; format: biochemical, Hormographiella species; conditions: conditions as in example 3
Procedure: as §1, §2, §3
In order to study the selectivity of the peptide enhanced reaction, the bleaching of a red beet solution with the system was assayed. The extract of red beet is, as with dyes, susceptible the action of peroxidase enhancers. […] Experimental conditions are as in example 3.

[3] = Dye transfer prevention: washing a coloured swatch in the presence of a white pick-up swatch with peroxidase; design: key to ΔE (colour difference): CIELAB colour difference ΔE vs control swatch without peptide; key to ΔL (whiteness): difference in CIELAB L* (lightness) vs control swatch; conditions: for ΔE (colour difference) / ΔL (whiteness): pH 9, 30 minutes, 40° C., versus control swatch without peptide enhancer; for dye transfer prevention / effect on white swatch: result in words
Procedure: The potential of the enzymatic system to prevent dye transfer was assessed by washing a coloured swatch in the presence of a white pick-up swatch. The experiments were performed in 25 ml Phosphate buffer, pH 9, containing the two swatches of 5×5 cm. The experiments were performed using a partially purified peroxidase derived from an Hormographiella species. Experiments were performed in the presence of 12 ABTS units/ml. The fabrics were agitated in the wash solution (25 ml) for 30 minutes at 40° C. The fabrics were line dried and the reflectance spectra were measured using a Minolta spectrometer. The data thereby obtained was transferred to the CIELAB L*a*b* colour space parameters. In this colour space, L* indicates lightness and a* and b* are the chromaticity coordinates. The colour differences between the control swatch, without addition the peptide enhancer, and the swatches washed in the presence of different concentrations of peptide, were expressed as ΔE, calculated from the following equation: [formula]

[4] = ELISA: binding of alkaline phosphatase-Reactive Red 6 conjugate (AP-RR6) to peptide-coated plates; conditions: plates coated with 1 mg/ml peptide, p-nitro-phenyl-phosphate, 30 minutes
Procedure: The specific binding of peptide #1 (NH2-GGSCGYHYQHCGQG-COOH) to the dye Reactive Red 6 was measured (the peptide contains one disuphide bridge through the cysteine residues, sequence of the peptides is given in one letter amino acid codes).
(§4) For the detection of binding, the enzyme Alkaline Phosphatase (AP, 2.5 mg/ml) was conjugated with the reactive dye Reactive Red 6 (RR6, 1.25 mM), by incubation of the enzyme with the dye during 2 hours, at room temperature in Borate buffer, 0.1 M, 0.15 M NaCl, pH 8.5. The dye thereby becomes covalently linked to the amino groups of the enzyme by its triazine unit. Free dye was separated from the enzyme conjugate by gel filtration (PD-10 column, Pharmacia). Elisa plates (Polysorb, Nunc) were coated overnight with 100 μl of a 1 mg/ml peptide solution in Phosphate buffer, 150 mM NaCl, pH 7.4 (PBS). The peptide coated ELISA plates were blocked with 2% Bovine Serum Albumin (BSA) in PBS for 1 hour, room temperature. The Alkaline Phosphatase--RR6 conjugate (AP-RR6) was then incubated for 1 hour, room temperature, in incubation buffer (0.2 M Tris, 20 mM NaCl, 1% PEG 6000, 5% BSA). The plates were washed plates 3 times with wash buffer (0.2 M Tris, 60 mM Citrate, 0.1 M NaCl, 0.05% Tween) and 3 times with demineralized water. Bound Alkaline Phosphatase (AP) was then detected by incubation with the substrate p-nitro-phenyl-phosphate. […] As a control, Alkaline Phosphatase, not conjugated to the dye, was used.

Alkaline Phosphatase = assay: ELISA control: binding of unconjugated Alkaline Phosphatase (AP) to peptide-coated plates; conditions: control: Alkaline Phosphatase not conjugated to the dye; plates coated with 1 mg/ml peptide; 30 minutes
Procedure: as §4

| Compound | OD reading at 590 nm (Reactive Black 5) (peroxidase [1]; 0 minutes after incubation) | OD reading at 590 nm (Reactive Black 5) (peroxidase [1]; 2 minutes after incubation) | OD reading at 590 nm (Reactive Black 5) (peroxidase [1]; 4 minutes after incubation) | OD reading at 590 nm (Reactive Black 5) (peroxidase [1]; 6 minutes after incubation) | OD reading at 590 nm (Reactive Black 5) (peroxidase [1]; 8 minutes after incubation) | OD reading at 590 nm (Reactive Black 5) (peroxidase [1]; 10 minutes after incubation) | OD reading at 590 nm (Reactive Black 5) (peroxidase [1]; 12 minutes after incubation) | OD reading at 590 nm (Reactive Black 5) (peroxidase [1]; 14 minutes after incubation) | bleaching of red beet solution (optical density) (peroxidase [2]; 0 minutes after incubation) | bleaching of red beet solution (optical density) (peroxidase [2]; 2 minutes after incubation) | bleaching of red beet solution (optical density) (peroxidase [2]; 4 minutes after incubation) | bleaching of red beet solution (optical density) (peroxidase [2]; 6 minutes after incubation) | bleaching of red beet solution (optical density) (peroxidase [2]; 8 minutes after incubation) | bleaching of red beet solution (optical density) (peroxidase [2]; 10 minutes after incubation) | bleaching of red beet solution (optical density) (peroxidase [2]; 12 minutes after incubation) | bleaching of red beet solution (optical density) (peroxidase [2]; 14 minutes after incubation) | ΔE (colour difference) ([3]; 25 μM) | ΔL (whiteness) ([3]; 25 μM) | OD 450 nm values, AP-RR6 [4] | OD 450 nm values, AP (Alkaline Phosphatase) | other results |
| --- | --- | --- | --- | --- | --- | --- | --- | --- | --- | --- | --- | --- | --- | --- | --- | --- | --- | --- | --- | --- | --- |
| N[C@@H](Cc1ccc(O)cc1)C(=O)O [tyrosine] | 0.651 | 0.606 | 0.580 | 0.559 | 0.540 | 0.523 | 0.507 | 0.494 | 1.082 | 1.076 | 1.06 | 1.022 | 0.906 | 0.739 | 0.591 | 0.488 | 0.55 | -0.5 |  |  | ΔE (colour difference) ([3]; 50 μM): 0.63; ΔL (whiteness) ([3]; 50 μM): -0.6; ΔE (colour difference) ([3]; 100 μM): 2.05; ΔL (whiteness) ([3]; 100 μM): -2.0; dye transfer prevention / effect on white swatch [3]: darkening of the white swatch (negative ΔL) |
| Arg-Arg [Arg--Arg] |  |  |  |  |  |  |  |  |  |  |  |  |  |  |  |  |  |  | 0.09 | 0.003 |  |
| Lys-Lys-Lys [Lys--Lys--Lys] |  |  |  |  |  |  |  |  |  |  |  |  |  |  |  |  |  |  | 0.31 | 0.023 |  |
| NH2-GGSCGYHYQHCGQG-COOH (H-GGSCGYHYQHCGQG-OH; cysteine pairing not given here) [Peptide #1] | 0.651 | 0.430 | 0.344 | 0.294 | 0.263 | 0.241 | 0.227 | 0.216 | 1.091 | 1.083 | 1.063 | 1.016 | 0.881 | 0.709 | 0.567 | 0.477 | 2.46 | 2.40 | 2.36 | 0.047 | bleaching activity of the peroxidase in the presence of the peptide (peroxidase [1]; result in words): enhanced bleaching activity; reaction enhancement over tyrosine, red beet solution (peroxidase [2]; result in words): there is not reaction enhancement of the peptide over tyrosine; ΔE (colour difference) ([3]; 50 μM): 2.85; ΔL (whiteness) ([3]; 50 μM): 2.80; ΔE (colour difference) ([3]; 100 μM): 3.62; ΔL (whiteness) ([3]; 100 μM): 3.50; dye transfer prevention / effect on white swatch [3]: clear dye transfer prevention benefit, resulting in a lighter white swatch |
| Val-Gly-Ser-Glu (VGSE; printed: Val-Gly-Ser-Glu) [V--G--S--E] |  |  |  |  |  |  |  |  |  |  |  |  |  |  |  |  |  |  | 0.03 | 0.003 |  |
